According to US20260285850A1, “SUBSTITUTED OXAZOLIDINONES AND IMIDAZOLINONES AS HERBICIDES” (FMC CORPORATION, priority 2023, published 2026):

Columns and labels:
Type in all cases: in vivo
[1] = test system: barnyardgrass (Echinochloa crus-galli); test: Test A postemergence application, visual injury rating 0-100
How it was run: (§1)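 Plants were grown in a loam soil-sand blend and treated with test chemical in a non-phytotoxic solvent mixture containing surfactant, either sprayed on soil preemergence or applied postemergence to 2-10 cm plants. After 10 days in a greenhouse, injury was scored visually against untreated controls, 0 meaning no effect and 100 complete control.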

[2] = test system: ragweed (common ragweed, Ambrosia artemisiifolia); test: as above
How it was run: as §1

corn (Zea mays) [3] = test: as above
How it was run: as §1

[4] = test system: horseweed (Erigeron canadensis); test: as above
How it was run: as §1

[5] = test system: oat, wild (wild oat, Avena fatua); test: as above
How it was run: as §1

kochia (Bassia scoparia) [6] = test: as above
How it was run: as §1

[7] = test system: ryegrass, Italian (italian ryegrass, Lolium multiflorum); test: as above
How it was run: as §1

[8] = test system: palmer (palmer amaranth, palmer pigweed, Amaranthus palmeri); test: as above
How it was run: as §1

[9] = test system: green foxtail (Setaria viridis); test: as above
How it was run: as §1

[10] = test system: blackgrass (Alopecurus myosuroides); test: as above
How it was run: as §1

[11] = test system: galium (catchweed bedstraw, Galium aparine); test: as above
How it was run: as §1

[12] = test system: wheat (Triticum aestivum); test: as above
How it was run: as §1

soybean (Glycine max) [13] = test: as above
How it was run: as §1

[14] = test system: barnyardgrass (Echinochloa crus-galli); test: Test A preemergence soil spray, visual injury rating 0-100; settings: 10 days
How it was run: as §1

[15] = test system: ragweed (common ragweed, Ambrosia artemisiifolia); test: as above; settings: 10 days
How it was run: as §1

corn (Zea mays) [16] = test: as above; settings: 10 days
How it was run: as §1

[17] = test system: oat, wild (wild oat, Avena fatua); test: as above; settings: 10 days
How it was run: as §1

kochia (Bassia scoparia) [18] = test: as above; settings: 10 days
How it was run: as §1

[19] = test system: ryegrass, Italian (italian ryegrass, Lolium multiflorum); test: as above; settings: 10 days
How it was run: as §1

[20] = test system: palmer (palmer amaranth, palmer pigweed, Amaranthus palmeri); test: as above; settings: 10 days
How it was run: as §1

[21] = test system: green foxtail (Setaria viridis); test: as above; settings: 10 days
How it was run: as §1

[22] = test system: blackgrass (Alopecurus myosuroides); test: as above; settings: 10 days
How it was run: as §1

[23] = test system: wheat (Triticum aestivum); test: as above; settings: 10 days
How it was run: as §1

soybean (Glycine max) [24] = test: as above; settings: 10 days
How it was run: as §1

rice (Oryza sativa) = test: Test B flooded paddy test, visual plant response rating 0-100; settings: 250 g ai/ha, Flood, applied to paddy water, evaluated after 13 days
How it was run: (§2)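 Compounds applied to standing paddy water (3 cm above soil, maintained for the test duration) on 2-leaf-stage plants; visual rating vs controls at 13 days, greenhouse.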

[25] = test system: sedge, umbrella (small-flower umbrella sedge, Cyperus difformis); test: as above; settings: 250 g ai/ha, Flood, applied to paddy water, evaluated after 13 days
How it was run: as §2

[26] = test system: ducksalad (Heteranthera limosa); test: as above; settings: 250 g ai/ha, Flood, applied to paddy water, evaluated after 13 days
How it was run: as §2

[27] = test system: barnyardgrass (Echinochloa crusgalli); test: as above; settings: 250 g ai/ha, Flood, applied to paddy water, evaluated after 13 days
How it was run: as §2

[28] = 62 g ai/ha, postemergence, 10 days, 0 = no effect, 100 = complete control
[29] = Postemergence, 16 g ai/ha, greenhouse 10 days, 0 no effect, 100 complete control
[30] = 62 g ai/ha, 0 = no effect, 100 = complete control

COC(=O)C1C=CC(NC(=O)C2(C)CN(c3cc(Cl)c(F)c(Cl)c3)C(=O)O2)C1 (stereo not shown) [Compound 150]
Barnyardgrass plant response rating (0-100) [1, 28]: 100
Barnyardgrass plant response rating (0 to 100 scale) [1, 29]: 90
Ragweed plant response rating (0-100) [2, 28]: 50
Ragweed plant response rating (0 to 100 scale) [2, 29]: 0
Corn plant response rating (0-100) (corn (Zea mays) [3]; [28]): 100
Corn plant response rating (0 to 100 scale) (corn (Zea mays) [3]; [29]): 100
Horseweed plant response rating (0-100) [4, 28]: 60
Horseweed plant response rating (0 to 100 scale) [4, 29]: 20
Oat, Wild plant response rating (0-100) [5, 28]: 90
Oat, Wild plant response rating (0 to 100 scale) [5, 29]: 60
Kochia plant response rating (0-100) (kochia (Bassia scoparia) [6]; [28]): 70
Kochia plant response rating (0 to 100 scale) (kochia (Bassia scoparia) [6]; [29]): 20
Ryegrass, Italian plant response rating (0-100) [7, 28]: 80
Ryegrass, Italian plant response rating (0 to 100 scale) [7, 29]: 50
Pigweed, Palmer plant response rating (0-100) [8, 28]: 60
Pigweed, Palmer plant response rating (0 to 100 scale) [8, 29]: 40
Foxtail, Green plant response rating (0-100) [9, 28]: 90
Foxtail, Green plant response rating (0 to 100 scale) [9, 29]: 20
Blackgrass plant response rating (0-100) [10, 28]: 90
Blackgrass plant response rating (0 to 100 scale) [10, 29]: 80
Galium plant response rating (0-100) [11, 28]: 80
Galium plant response rating (0 to 100 scale) [11, 29]: 70
Wheat plant response rating (0-100) [12, 28]: 90
Wheat plant response rating (0 to 100 scale) [12, 29]: 70
Soybean plant response rating (0-100) (soybean (Glycine max) [13]; [28]): 70
Soybean plant response rating (0 to 100 scale) (soybean (Glycine max) [13]; [29]): 60
Barnyardgrass plant response rating ([14]; 16 g ai/ha, 0 to 100 scale): 0
Barnyardgrass plant response rating (0-100) [14, 30]: 90
Ragweed plant response rating ([15]; 16 g ai/ha, 0 to 100 scale): 0
Ragweed plant response rating (0-100) [15, 30]: 0
Corn plant response rating (corn (Zea mays) [16]; 16 g ai/ha, 0 to 100 scale): 0
Corn plant response rating (0-100) (corn (Zea mays) [16]; [30]): 70
Oat, Wild plant response rating ([17]; 16 g ai/ha, 0 to 100 scale): 0
Oat, Wild plant response rating (0-100) [17, 30]: 10
Kochia plant response rating (kochia (Bassia scoparia) [18]; 16 g ai/ha, 0 to 100 scale): 20
Kochia plant response rating (0-100) (kochia (Bassia scoparia) [18]; [30]): 90
Ryegrass, Italian plant response rating ([19]; 16 g ai/ha, 0 to 100 scale): 10
Ryegrass, Italian plant response rating (0-100) [19, 30]: 50
Pigweed, Palmer plant response rating ([20]; 16 g ai/ha, 0 to 100 scale): 10
Pigweed, Palmer plant response rating (0-100) [20, 30]: 90
Foxtail, Green plant response rating ([21]; 16 g ai/ha, 0 to 100 scale): 0
Foxtail, Green plant response rating (0-100) [21, 30]: 90
Blackgrass plant response rating ([22]; 16 g ai/ha, 0 to 100 scale): 0
Blackgrass plant response rating (0-100) [22, 30]: 50
Wheat plant response rating ([23]; 16 g ai/ha, 0 to 100 scale): 0
Wheat plant response rating (0-100) [23, 30]: 80
Soybean plant response rating (soybean (Glycine max) [24]; 16 g ai/ha, 0 to 100 scale): 0
Soybean plant response rating (0-100) (soybean (Glycine max) [24]; [30]): 0
Plant response rating, Rice (0 to 100 scale, 0 is no effect and 100 is complete control) (rice (Oryza sativa)): 30
Plant response rating, Sedge, Umbrella (0 to 100 scale, 0 is no effect and 100 is complete control) [25]: 75
Plant response rating, Ducksalad (0 to 100 scale, 0 is no effect and 100 is complete control) [26]: 85
Plant response rating, Barnyardgrass (0 to 100 scale, 0 is no effect and 100 is complete control) [27]: 65
